# According to patent publication US20220195487A1, “Method for Measuring Inhibition of Bacteria by Antibacterial Drug, and Bacterial Counting Device and Method Thereof” (BEIJING XINJI JINNUO MEDICAL EQUIPMENT CO.,LTD., priority 2019, published 2022):
# Experiments:
# Assay type in all cases: cell-based
# [1] = tested on: Enterococcus faecalis (ATCC29212); test: 2 h susceptibility by resistance bacterial counter; details: Example 3, resistance counting, 2 h at 37° C., 60% of the positive count value as threshold
# Method: (§1) 2.2.1 Preparation of bacterial strains: In accordance with the requirements of the CLSI standards, pick each fresh strains within 24 h with a turbidity of 0.5 McFarland units in the column of strain name in Table 5;
# (§2) 2.2.2 Inoculation: Take 100 μL of each bacterial suspension with a turbidity of 0.5 McFarland units and dispense to a 48-well plate with pre-configured gradient antibiotics, 500 μL dispensed in each well;
# (§3) 2.2.3 Incubation and detection: Incubate for 2 h at 37° C., and measure with a resistance bacterial counter. Adjust the instrument to its best sensitivity and then count bacteria. Record the 24 h routine susceptibility results for comparative analysis.
# [2] = tested on: Enterococcus faecalis (ATCC29212); test: rapid drug susceptibility testing of living cells (live bacteria counting, 2 h); details: for Living cell counts: 2 h
# Method: (§4) 1.2.1 Preparation of bacterial strains: in accordance with the requirements of the CLSI standards, pick each fresh strains within 24 h with a turbidity of 0.5 McFarland units in the column of strain name in Table 7.
# (§5) 1.2.2 Inoculation: take 100 μL of each bacterial suspension with a turbidity of 0.5 McFarland units and dispense to a 48-well plate with pre-configured gradient antibiotics, 500 μL dispensed in each well.
# (§6) 1.2.3 Incubation and detection: incubate for 2 h at 37° C., and perform live bacteria counting. Record the 24 h routine susceptibility results for comparative analysis.
# [3] = tested on: Enterococcus faecalis (ATCC29212); test: 24 h routine (conventional) drug susceptibility testing by visual observation
# Klebsiella pneumoniae [4] = test: 2 h susceptibility by resistance bacterial counter; details: Example 3, resistance counting, 2 h at 37° C., 60% of the positive count value as threshold
# Method: as §1, §2, §3
# Klebsiella pneumoniae [5] = test: 24 h routine (conventional) drug susceptibility testing by visual observation
# Klebsiella pneumoniae [6] = test: rapid drug susceptibility testing of living cells (live bacteria counting, 2 h); details: for Living cell counts: 2 h
# Method: as §4, §5, §6
# [7] = tested on: Pseudomonas aeruginosa (ATCC27853); test: 2 h susceptibility by resistance bacterial counter; details: Example 3, resistance counting, 2 h at 37° C., 60% of the positive count value as threshold
# Method: as §1, §2, §3
# [8] = tested on: Pseudomonas aeruginosa (ATCC27853); test: rapid drug susceptibility testing of living cells (live bacteria counting, 2 h); details: for Living cell counts: 2 h
# Method: as §4, §5, §6
# [9] = tested on: Pseudomonas aeruginosa (ATCC27853); test: 24 h routine (conventional) drug susceptibility testing by visual observation
# [10] = tested on: Escherichia coli ATCC 25922; test: VITEK microbial identification susceptibility system; details: ATCC25922, read-out: minimum inhibitory concentration
# Method: (§7) In addition, the bacteria in this example were also subjected to three other methods of drug susceptibility testing, namely, measuring the inhibition of Escherichia coli ATCC 25922 in this example by ampicillin according to the operating manual of the VITEK microbial identification susceptibility system from Merieux, France, with a minimum inhibitory concentration of 4 μg/mL (micrograms per milliliter); measuring the inhibition of Escherichia coli ATCC 25922 in this example by ampicillin according to the Etest method, as detailed in the operating manual of the Etest kit from Thermo Fisher, USA, with a minimum inhibitory concentration of 2 μg/mL; and measuring the inhibition of Escherichia coli ATCC 25922 in this example by ampicillin according to broth dilution drug susceptibility testing method as specified in the broth dilution susceptibility standards by the American Clinical and Laboratory Standards Institute, with a minimum inhibitory concentration of 4 μg/mL. It can be seen that their results are all consistent and sensitive.
# [11] = tested on: Escherichia coli ATCC 25922; test: Etest method; details: ATCC25922, read-out: minimum inhibitory concentration
# Method: as §7
# [12] = tested on: Escherichia coli ATCC 25922; test: broth dilution drug susceptibility testing method (CLSI); details: ATCC25922, read-out: minimum inhibitory concentration
# Method: as §7
# [13] = tested on: Escherichia coli ATCC 25922; test: rapid susceptibility test by resistance counting method (Coulter principle)
# Method: A method for measuring inhibition of Escherichia coli ATCC 25922 by ampicillin (by the resistance counting method).
# The standard strain ATCC 25922 Escherichia coli was transferred for use later and incubated at 37° C. for 18 hours.
# Ten of the drug susceptibility testing tubes (or cups) contained the required antibiotics of concentrations via doubling dilution (refer to American CLSI standards for concentrations for different drugs); the eleventh tube without antibiotics is used as a positive control (PC); the twelfth tube without bacterial suspension is used as a negative control (NC).
# Prepare the bacterial strain and triturate on the wall of a vial with Mueller Hinton broth (MH for antibiotics susceptibility testing) to mix evenly, close the cap and measure the turbidity with a nephelometer (BD PhoenixSpec Nephelometer), the turbidity being 0.5 McFarland units, and set aside to be used later.
# Inoculate the bacteria to be tested at an inoculum concentration specified in the CLSI (American Clinical and Laboratory Standards Institute) method for broth dilution drug susceptibility testing, and incubate in an incubator at 37° C.
# Preparation of bacterial suspension: pick a spare colony to prepare bacterial suspension, the concentration of the bacterial suspension being 0.5 McFarland units. Add the colony suspension to (MH) broths containing different concentrations of various antibiotics and the content of bacteria in each tube after inoculation is 1×10∧4 cfu/mL to 5×10∧7 cfu/mL, optimally 5×10∧6 cfu/mL (colony forming units/mL), i.e. optimally 5×10∧6 colony forming units per mL.
# Incubate in an incubator at 37° C., perform bacterial counting at 0 min, 10 min, 30 min, 60 min, 90 min and 120 min respectively by the resistance counting method (OMEC (Zhuhai) RC-3000 resistance (Coulter) particle counter). Measure twice, take the average value and record the data.
# There were 12 tubes for testing, the eleventh tube being the positive control (PC), the twelfth tube being the negative control (NC) and the other 10 tubes being the test tubes. At each detection time point, measurements were carried out for all 12 tubes.
# Acinetobacter baumannii [14] = test: 24 h routine (conventional) drug susceptibility testing by visual observation
# Acinetobacter baumannii [15] = test: 2 h susceptibility by resistance bacterial counter; details: Example 3, resistance counting, 2 h at 37° C., 60% of the positive count value as threshold
# Method: as §1, §2, §3
# Acinetobacter baumannii [16] = test: rapid drug susceptibility testing of living cells (live bacteria counting, 2 h); details: for Living cell counts: 2 h
# Method: as §4, §5, §6
# [17] = Example 4, live bacteria counting, 2 h at 37° C.
# [18] = Example 3, 24 h routine susceptibility
# [19] = Example 4, 24 h routine susceptibility
compound,measurement,setting,value
Penicillin,2 hMIC,[1],1
same,Living cell counts,[2]; 0.03 μg/mL,13789 cells/μL
same,Living cell counts,[2]; 0.06 μg/mL,13679 cells/μL
same,Living cell counts,[2]; 0.12 μg/mL,12958 cells/μL
same,Living cell counts,[2]; 0.25 μg/mL,12088 cells/μL
same,Living cell counts,[2]; 0.5 μg/mL,11105 cells/μL
same,Living cell counts,[2]; 1 μg/mL,3085 cells/μL
same,Living cell counts,[2]; 2 μg/mL,1076 cells/μL
same,Living cell counts,[2]; 4 μg/mL,798 cells/μL
same,Living cell counts,[2]; 8 μg/mL,683 cells/μL
same,Living cell counts,[2]; 16 μg/mL,659 cells/μL
same,"MIC, rapid drug susceptibility testing of living cells",[2]; [17],1 µg/mL
same,24 hMIC,[3]; [18],2
same,"MIC, conventional drug susceptibility testing",[3]; [19],2 µg/mL
Gentamicin,2 hMIC,Klebsiella pneumoniae [4],4
same,24 hMIC,Klebsiella pneumoniae [5]; [18],8
same,"MIC, conventional drug susceptibility testing",Klebsiella pneumoniae [5]; [19],8 µg/mL
same,Living cell counts,Klebsiella pneumoniae [6]; 0.03 μg/mL,11879 cells/μL
same,Living cell counts,Klebsiella pneumoniae [6]; 0.06 μg/mL,11426 cells/μL
same,Living cell counts,Klebsiella pneumoniae [6]; 0.12 μg/mL,10167 cells/μL
same,Living cell counts,Klebsiella pneumoniae [6]; 0.25 μg/mL,10278 cells/μL
same,Living cell counts,Klebsiella pneumoniae [6]; 0.5 μg/mL,10971 cells/μL
same,Living cell counts,Klebsiella pneumoniae [6]; 1 μg/mL,10654 cells/μL
same,Living cell counts,Klebsiella pneumoniae [6]; 2 μg/mL,10549 cells/μL
same,Living cell counts,Klebsiella pneumoniae [6]; 4 μg/mL,10876 cells/μL
same,Living cell counts,Klebsiella pneumoniae [6]; 8 μg/mL,1876 cells/μL
same,Living cell counts,Klebsiella pneumoniae [6]; 16 μg/mL,880 cells/μL
same,"MIC, rapid drug susceptibility testing of living cells",Klebsiella pneumoniae [6]; [17],8 µg/mL
CC(C)(O/N=C(\C(=O)N[C@@H]1C(=O)N2C(C(=O)[O-])=C(C[n+]3ccccc3)CS[C@H]12)c1csc(N)n1)C(=O)O [Ceftazidime],2 hMIC,[7],4
same,Living cell counts,[8]; 0.03 μg/mL,1509 cells/μL
same,Living cell counts,[8]; 0.06 μg/mL,1478 cells/μL
same,Living cell counts,[8]; 0.12 μg/mL,1513 cells/μL
same,Living cell counts,[8]; 0.25 μg/mL,1480 cells/μL
same,Living cell counts,[8]; 0.5 μg/mL,1235 cells/μL
same,Living cell counts,[8]; 1 μg/mL,1090 cells/μL
same,Living cell counts,[8]; 2 μg/mL,308 cells/μL
same,Living cell counts,[8]; 4 μg/mL,297 cells/μL
same,Living cell counts,[8]; 8 μg/mL,202 cells/μL
same,Living cell counts,[8]; 16 μg/mL,209 cells/μL
same,"MIC, rapid drug susceptibility testing of living cells",[8]; [17],2 µg/mL
same,24 hMIC,[9]; [18],2
same,"MIC, conventional drug susceptibility testing",[9]; [19],2 µg/mL
CC1(C)S[C@@H]2[C@H](NC(=O)[C@H](N)c3ccccc3)C(=O)N2[C@H]1C(=O)O [ampicillin],MIC,[10],4 µg/mL
same,MIC,[11],2 µg/mL
same,MIC,[12],4 µg/mL
same,bacterial counts,"[13]; 0 min, 0.5 μg/mL",210 cells/μL
same,bacterial counts,"[13]; 0 min, 1 μg/mL",230 cells/μL
same,bacterial counts,"[13]; 0 min, 2 μg/mL",208 cells/μL
same,bacterial counts,"[13]; 0 min, 4 μg/mL",206 cells/μL
same,bacterial counts,"[13]; 0 min, 8 μg/mL",204 cells/μL
same,bacterial counts,"[13]; 0 min, 16 μg/mL",208 cells/μL
same,bacterial counts,"[13]; 0 min, 32 μg/mL",210 cells/μL
same,bacterial counts,"[13]; 0 min, 64 μg/mL",220 cells/μL
same,bacterial counts,"[13]; 0 min, 128 μg/mL",212 cells/μL
same,bacterial counts,"[13]; 0 min, 256 μg/mL",207 cells/μL
same,bacterial counts,"[13]; 60 min, 0.5 μg/mL",807 cells/μL
same,bacterial counts,"[13]; 60 min, 1 μg/mL",789 cells/μL
same,bacterial counts,"[13]; 60 min, 2 μg/mL",811 cells/μL
same,bacterial counts,"[13]; 60 min, 4 μg/mL",304 cells/μL
same,bacterial counts,"[13]; 60 min, 8 μg/mL",250 cells/μL
same,bacterial counts,"[13]; 60 min, 16 μg/mL",264 cells/μL
same,bacterial counts,"[13]; 60 min, 32 μg/mL",290 cells/μL
same,bacterial counts,"[13]; 60 min, 64 μg/mL",278 cells/μL
same,bacterial counts,"[13]; 60 min, 128 μg/mL",214 cells/μL
same,bacterial counts,"[13]; 60 min, 256 μg/mL",350 cells/μL
same,bacterial counts,"[13]; 90 min, 0.5 μg/mL",1540 cells/μL
same,bacterial counts,"[13]; 90 min, 1 μg/mL",1469 cells/μL
same,bacterial counts,"[13]; 90 min, 2 μg/mL",1511 cells/μL
same,bacterial counts,"[13]; 90 min, 4 μg/mL",432 cells/μL
same,bacterial counts,"[13]; 90 min, 8 μg/mL",502 cells/μL
same,bacterial counts,"[13]; 90 min, 16 μg/mL",500 cells/μL
same,bacterial counts,"[13]; 90 min, 32 μg/mL",491 cells/μL
same,bacterial counts,"[13]; 90 min, 64 μg/mL",489 cells/μL
same,bacterial counts,"[13]; 90 min, 128 μg/mL",367 cells/μL
same,bacterial counts,"[13]; 90 min, 256 μg/mL",460 cells/μL
same,bacterial counts,"[13]; 120 min, 0.5 μg/mL",2534 cells/μL
same,bacterial counts,"[13]; 120 min, 1 μg/mL",2456 cells/μL
same,bacterial counts,"[13]; 120 min, 2 μg/mL",2463 cells/μL
same,bacterial counts,"[13]; 120 min, 4 μg/mL",590 cells/μL
same,bacterial counts,"[13]; 120 min, 8 μg/mL",524 cells/μL
same,bacterial counts,"[13]; 120 min, 16 μg/mL",560 cells/μL
same,bacterial counts,"[13]; 120 min, 32 μg/mL",578 cells/μL
same,bacterial counts,"[13]; 120 min, 64 μg/mL",641 cells/μL
same,bacterial counts,"[13]; 120 min, 128 μg/mL",498 cells/μL
same,bacterial counts,"[13]; 120 min, 256 μg/mL",512 cells/μL
same,MIC,"[13]; ATCC25922, resistance method, Escherichia coli ATCC 25922, read-out: minimum inhibitory concentration (MIC)",4 µg/mL
C[C@@H](O)[C@H]1C(=O)N2C(C(=O)O)=C(S[C@@H]3CN[C@H](C(=O)N(C)C)C3)[C@H](C)[C@H]12 [Meropenem],24 hMIC,Acinetobacter baumannii [14]; [18],0.12
same,"MIC, conventional drug susceptibility testing",Acinetobacter baumannii [14]; [19],0.12 µg/mL
same,2 hMIC,Acinetobacter baumannii [15],0.12
same,Living cell counts,Acinetobacter baumannii [16]; 0.03 μg/mL,7959 cells/μL
same,Living cell counts,Acinetobacter baumannii [16]; 0.06 μg/mL,6495 cells/μL
same,Living cell counts,Acinetobacter baumannii [16]; 0.12 μg/mL,1574 cells/μL
same,Living cell counts,Acinetobacter baumannii [16]; 0.25 μg/mL,1570 cells/μL
same,Living cell counts,Acinetobacter baumannii [16]; 0.5 μg/mL,1514 cells/μL
same,Living cell counts,Acinetobacter baumannii [16]; 1 μg/mL,1490 cells/μL
same,Living cell counts,Acinetobacter baumannii [16]; 2 μg/mL,1479 cells/μL
same,Living cell counts,Acinetobacter baumannii [16]; 4 μg/mL,1561 cells/μL
same,Living cell counts,Acinetobacter baumannii [16]; 8 μg/mL,1003 cells/μL
same,Living cell counts,Acinetobacter baumannii [16]; 16 μg/mL,979 cells/μL
same,"MIC, rapid drug susceptibility testing of living cells",Acinetobacter baumannii [16]; [17],0.12 µg/mL
